Here are results for ten compounds from patent US10717749B2, “Macrocyclic sulfondiimine compounds” (BAYER PHARMA AKTIENGESELLSCHAFT, priority 2015, dated 2020).

Structures are written as SMILES. In brackets after ≈: the same amount, converted by molar mass.

The target of one data set is T1, CDK9/CycT1 (Homo sapiens, UniProt P50750).
T1 construct: Recombinant full-length His-tagged human CDK9 and CycT1; His; purchased Invitrogen PV4131; host or cells: insect cells
Briefly: CDK9/CycT1 high ATP kinase assay (Method 1b, TR-FRET, 2 mM ATP). In kind it is biochemical. As to conditions: for IC50: Method 1b, 2 mM ATP; for Selectivity high ATP CDK9 over high ATP CDK2: IC50 (high ATP CDK2)/IC50 (high ATP CDK9): Methods 1b and 2b, minimal values. Here is the method:
1b. CDK9/CycT1 High ATP Kinase Assay
CDK9/CycT1-inhibitory activity of compounds of the present invention at a high ATP concentration after preincubation of enzyme and test compounds was quantified employing the CDK9/CycT1 TR-FRET assay as described in the following paragraphs.
Recombinant full-length His-tagged human CDK9 and CycT1, expressed in insect cells and purified by Ni-NTA affinity chromatography, were purchase from Invitrogen (Cat. No PV4131). As substrate for the kinase reaction biotinylated peptide biotin-Ttds-YISPLKSPYKISEG (C-terminus in amid form) was used which can be purchased e.g. from the company JERINI peptide technologies (Berlin, Germany). For the assay 50 nl of a 100 fold concentrated solution of the test compound in DMSO was pipetted into a black low volume 384 well microtiter plate (Greiner Bio-One, Frickenhausen, Germany), 2 μl of a solution of CDK9/CycT1 in aqueous assay buffer [50 mM Tris/HCl pH 8.0, 10 mM MgCl2, 1.0 mM dithiothreitol, 0.1 mM sodium ortho-vanadate, 0.010% (v/v) Nonidet-P40 (Sigma)] were added and the mixture was incubated for 15 min at 22° C. to allow pre-binding of the test compounds to the enzyme before the start of the kinase reaction. Then the kinase reaction was started by the addition of 3 μl of a solution of adenosine-tri-phosphate (ATP, 3.3 mM=> final conec. in the 5 μl assay volume is 2 mM) and substrate (1.67 μM=> final conc. in the 5 μl assay volume is 1 μM) in assay buffer and the resulting mixture was incubated for a reaction time of 25 min at 22° C. The concentration of CDK9/CycT1 was adjusted depending of the activity of the enzyme lot and was chosen appropriate to have the assay in the linear range, typical concentrations were in the range of 0.5 μg/mL. The reaction was stopped by the addition of 5 μl of a solution of TR-FRET detection reagents (0.2 μM streptavidine-XL665 [Cisbio Bioassays, Codolet, France] and 1 nM anti-RB(pSer807/pSer811)-antibody from BD Pharmingen [#558389] and 1.2 nM LANCE EU-W1024 labeled anti-mouse IgG antibody [Perkin-Elmer, product no. AD0077]) in an aqueous EDTA-solution (100 mM EDTA, 0.2% (w/v) bovine serum albumin in 100 mM HEPES pH 7.5).
The resulting mixture was incubated 1 h at 22° C. to allow the formation of complex between the phosphorylated biotinylated peptide and the detection reagents. Subsequently the amount of phosphorylated substrate was evaluated by measurement of the resonance energy transfer from the Eu-chelate to the streptavidine-XL. Therefore, the fluorescence emissions at 620 nm and 665 nm after excitation at 350 nm was measured in a HTRF reader, e.g. a Rubystar (BMG Labtechnologies, Offenburg, Germany) or a Viewlux (Perkin-Elmer). The ratio of the emissions at 665 nm and at […] was taken as the measure for the amount of phosphorylated substrate. The data were normalised (enzyme reaction without inhibitor=0% inhibition, all other assay components but no enzyme=100% inhibition).
A general note: In TR-FRET formats the signal depends on donor and acceptor labels being close together.

The nature of data set [1]: High throughput determination of aqueous drug solubility from DMSO solution (Method 4a). The format is physicochemical. As to conditions: phosphate buffer, kinetic from dmso stock, pH 6.5, Method 4a. The text has this: 4. Equilibrium Shake Flask Solubility Assay:
4a) High Throughput Determination of Aqueous Drug Solubility (100 Mmolar in DMSO)
The high throughput screening method to determine aqueous drug solubility is based on: Thomas Onofrey and Greg Kazan, Performance and correlation of a 96-well high throughput screening method to determine aqueous drug solubility, http://wwv.millipore.com/publications.nsf/a73664f9f981 af8c852569b9005b4eee/e565516fb76e7435852 56da30052db77/$FILE/AN1731EN00.pdf
The assay was run in a 96-well plate format. Each well was filled with an individual compound.
All pipetting steps were performed using a robot platform.
100 μl of a 10 mmolar solution of drug in DMSO were concentrated by vacuum centrifugation and resolved in 10 μl DMSO. 990 μl phosphate buffer pH 6.5 were added. The content of DMSO amounts to 1%. The multititer plate was put on a shaker and mixed for 24 hrs at room temperature. 150 μl of the suspension were transferred to a filtration plate. After filtration using a vacuum manifold the filtrate was diluted 1:400 and 1:8000. A second microtiter plate with 20 μl of a 10 mM solution of drug in DMSO served for calibration. Two concentrations (0.005 μM and 0.0025 μM) were prepared by dilution in DMSO/water 1:1 and used for calibration. Filtrate and calibration plates were quantified by HPLC-MS/MS.
The areas of sample- and calibration injections were determined by using mass spectromety software (AB SCIEX: Discovery Quant 2.1.3. and Analyst 1.6.1). The calculation of the solubility value (in mg/l) was executed by an inhouse developed Excel macro.

T1 sequence (P50750 whole entry): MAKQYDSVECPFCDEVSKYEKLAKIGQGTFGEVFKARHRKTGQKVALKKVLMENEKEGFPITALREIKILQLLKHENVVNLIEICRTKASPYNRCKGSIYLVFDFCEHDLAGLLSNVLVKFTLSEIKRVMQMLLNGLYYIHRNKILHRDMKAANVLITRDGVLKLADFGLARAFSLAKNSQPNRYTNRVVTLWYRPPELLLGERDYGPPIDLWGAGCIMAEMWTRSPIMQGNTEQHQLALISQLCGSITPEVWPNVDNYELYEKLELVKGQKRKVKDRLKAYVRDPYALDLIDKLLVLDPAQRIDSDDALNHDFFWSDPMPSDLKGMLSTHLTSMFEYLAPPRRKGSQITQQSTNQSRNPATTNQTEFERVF
T1 sequence (O60563 whole entry partner): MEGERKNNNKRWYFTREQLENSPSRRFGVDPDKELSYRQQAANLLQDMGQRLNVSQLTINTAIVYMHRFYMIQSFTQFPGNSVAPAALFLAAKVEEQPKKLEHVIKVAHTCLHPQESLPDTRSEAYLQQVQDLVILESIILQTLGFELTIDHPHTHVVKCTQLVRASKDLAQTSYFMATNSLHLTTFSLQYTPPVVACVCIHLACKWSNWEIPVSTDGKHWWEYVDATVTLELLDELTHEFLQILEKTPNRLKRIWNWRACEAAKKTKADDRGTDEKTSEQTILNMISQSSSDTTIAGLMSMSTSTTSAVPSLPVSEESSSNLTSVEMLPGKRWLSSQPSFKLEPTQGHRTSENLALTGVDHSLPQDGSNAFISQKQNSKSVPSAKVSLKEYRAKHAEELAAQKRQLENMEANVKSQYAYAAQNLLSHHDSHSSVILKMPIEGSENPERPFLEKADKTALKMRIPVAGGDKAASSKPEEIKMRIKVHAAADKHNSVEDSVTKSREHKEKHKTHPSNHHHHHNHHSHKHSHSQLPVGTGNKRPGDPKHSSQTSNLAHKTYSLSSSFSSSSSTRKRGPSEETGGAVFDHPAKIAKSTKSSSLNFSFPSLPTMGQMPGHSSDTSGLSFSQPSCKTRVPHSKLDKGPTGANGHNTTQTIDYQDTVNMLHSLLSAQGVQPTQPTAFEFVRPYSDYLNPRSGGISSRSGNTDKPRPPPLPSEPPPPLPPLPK

`CS(=N)(=N)Cc1cc2cc(c1)OCCCCOc1cc(F)ccc1-c1nc(ncc1F)N2` [Example 5, 16,20-difluoro-9-[(S-methylsulfonodiimidoyl)methyl]-2,3,4,5-tetrahydro-12H-13,17-(azeno)-11,7-(metheno)-1,6,12,14-benzodioxadiazacyclononadecine]: on CDK9/CycT1, the IC50 worked out at 2.1 nM and the “Selectivity high ATP CDK9 over high ATP CDK2: IC50 (high ATP CDK2)/IC50 (high ATP CDK9)” value (shortened to “Selectivity high ATP CDK9”) is reported as 590. In data set [1], the solubility (thermodynamic) at 24 h was 78 µg/mL (≈ 170 µM).

Turning to `CS(=N)(Cc1cc2nc(c1)OCCCOc1cc(F)ccc1-c1cc(ncc1F)N2)=NC#N` (racemic) [Example 3, (rac)-[{[15,19-difluoro-3,4-dihydro-2H,11H-10,6-(azeno)-12,16-(metheno)-1,5,11,13-benzodioxadiazacyclooctadecin-8-yl]methyl}(imino)methyl-λ^6-sulfanylidene]cyanamide], at CDK9/CycT1, 1.7 nM corresponded to half-maximal inhibition (IC50) and the “Selectivity high ATP CDK9” value came to 36.7.

As for `CS(=N)(Cc1cc2nc(c1)OCCCOc1cc(F)ccc1-c1cc(ncc1F)N2)=NCCCO` (racemic) [Example 2, (rac)-3-(2-{[15,19-difluoro-3,4-dihydro-2H,11H-10,6-(azeno)-12,16-(metheno)-1,5,11,13-benzodioxadiazacyclooctadecin-8-yl]methyl}-2-methyl-2λ^6-diazathia-1,2-dien-1-yl)propan-1-ol], at CDK9/CycT1, half-maximal inhibition (IC50) required 2 nM and the “Selectivity high ATP CDK9” value is recorded as 123.

Regarding `CS(=N)(=N)Cc1cc2cc(c1)OCCCCOc1c(ccc(F)c1F)-c1nc(ncc1F)N2` [Example 6, 16,20,21-trifluoro-9-[(S-methylsulfonodiimidoyl)methyl]-2,3,4,5-tetrahydro-12H-13,17-(azeno)-11,7-(metheno)-1,6,12,14-benzodioxadiazacyclononadecine], at CDK9/CycT1, the half-maximal inhibitory concentration (IC50) was 5.9 nM and the “Selectivity high ATP CDK9” value was 2118. This compound also returned a thermodynamic solubility at 24 h in data set [1] of 14 µg/mL (≈ 29.3 µM).

In the case of `CS(=N)(=N)Cc1cc2cc(c1)OCCCCOc1c(F)cccc1-c1nc(ncc1F)N2` [Example 7, 16,21-difluoro-9-[(S-methylsulfonodiimidoyl)methyl]-2,3,4,5-tetrahydro-12H-13,17-(azeno)-11,7-(metheno)-1,6,12,14-benzodioxadiazacyclononadecine], the “Selectivity high ATP CDK9” value at CDK9/CycT1 is reported as 2132.

Take `CS(=N)(=N)Cc1cc2nc(c1)OCCCOc1cc(F)ccc1-c1cc(ncc1F)N2` [Example 1, 15,19-difluoro-8-[(S-methylsulfonodiimidoyl)methyl]-3,4-dihydro-2H,11H-10,6-(azeno)-12,16-(metheno)-1,5,11,13-benzodioxadiazacyclooctadecine]: on CDK9/CycT1, inhibition was half-maximal at 2 nM (IC50) and the “Selectivity high ATP CDK9” value is given as 70.

Take `CN=S(C)(=N)Cc1cc2cc(c1)OCCCCOc1cc(F)ccc1-c1nc(ncc1F)N2` (racemic) [Example 10, (rac)-9-[(N,S-dimethylsulfonodiimidoyl)methyl]-16,20-difluoro-2,3,4,5-tetrahydro-12H-13,17-(azeno)-11,7-(metheno)-1,6,12,14-benzodioxadiazacyclononadecine]: on CDK9/CycT1, the IC50 came to 3.4 nM and the “Selectivity high ATP CDK9” value came to 485.

In the case of `CS(=N)(=N)Cc1cc2nc(c1C#N)OCCCOc1cc(F)ccc1-c1cc(ncc1F)N2` [Example 8, 15,19-difluoro-8-[(S-methylsulfonodiimidoyl)methyl]-3,4-dihydro-2H,11H-10,6-(azeno)-12,16-(metheno)-1,5,11,13-benzodioxadiazacyclooctadecine-7-carbonitrile], at CDK9/CycT1, 1.5 nM corresponded to half-maximal inhibition (IC50) and the “Selectivity high ATP CDK9” value is listed as 252.

Regarding `CN=S(C)(=N)Cc1cc2nc(c1)OCCCOc1cc(F)ccc1-c1cc(ncc1F)N2` (racemic) [Example 4, (rac)-8-[(N,S-dimethylsulfonodiimidoyl)methyl]-15,19-difluoro-3,4-dihydro-2H,11H-10,6-(azeno)-12,16-(metheno)-1,5,11,13-benzodioxadiazacyclooctadecine], at CDK9/CycT1, the IC50 was found to be 3.7 nM and the “Selectivity high ATP CDK9” value is 168.

`CS(=N)(Cc1cc2cc(c1)OCCCCOc1cc(F)ccc1-c1nc(ncc1F)N2)=NC1CC1` (racemic) [Example 9, (rac)-9-[(N-cyclopropyl-S-methylsulfonodiimidoyl)methyl]-16,20-difluoro-2,3,4,5-tetrahydro-12H-13,17-(azeno)-11,7-(metheno)-1,6,12,14-benzodioxadiazacyclononadecine]: at CDK9/CycT1, it took 2.3 nM to reach half-maximal inhibition (IC50) and the “Selectivity high ATP CDK9” value is listed as 433. The compound also returned a solubility (thermodynamic) at 24 h in data set [1] of 70 µg/mL (≈ 140 µM).

For orientation: IC50 means the concentration that inhibits the measured activity by half. A lower IC50 goes with higher potency. Broadly, the solubility (thermodynamic) is solubility found after equilibrating the solid with the medium.
